Paper PMC7321072, “Bioactive Potential of Extracts of Labrenzia aggregata Strain USBA 371, a Halophilic Bacterium Isolated from a Terrestrial Source” (Molecules, 2020)
Read-outs that look alike come from different tables or passages of the source.

Columns and labels:
Type in all cases: cell-based
[1] = test system: MCA 38 (murine colon); experiment: Cytotoxic activity, neutral red assay, MCA 38; conditions: mean ± SEM
Method: (§1) The isolated compounds were resuspended in dimethyl sulfoxide (DMSO) to a final concentration of 25 mg/mL (stock solution), subsequent dilutions between 250 and 31 μg/mL were used for cytotoxicity assays. The cytotoxic activity was determined by neutral red assay, initially against the adherent cell lines 4T1 (mouse mammary tumor) and MCF-7 (human mammary adenocarcinoma) followed by H17 y TSA (murine breast cancer), MES SA PGP (+) y MES SA PGP (–) (human uterus sarcome), B16 (murine melanoma), MCA 38 (murine colon), 3T3 (murine fibroblats) y K562-ATCC, U937 y HL-60/MX2 (myeloid acute leukemia cell line) as described by Díaz-Cárdenas et al., 2017 [15]. When cultures reached a confluence of 80%, cells were passaged and counted in a Neubauer chamber. Cell viability was estimated in triplicate using the trypan blue assay. The percentage of viability was calculated as absorbance of the vehicle/absorbance of the treatment per 100. […] IC50 values were calculated with three or four parameter nonlinear regression curves using GraphPad Prism software (GraphPad Software, Inc., San Diego, CA, USA). […] The selectivity index was calculated using the formula: IC50 Fibroblasts/IC50 tumor cell. […]
(§2) The solvent used in the reconstitution of the extract (DMSO) was evaluated as a negative control for each test in the same volume as the extracts. […]

[2] = test system: 3T3 (murine fibroblast); experiment: Cytotoxic activity, neutral red assay, 3T3 normal fibroblasts; conditions: 3T3, murine fibroblast (normal cells); mean ± SEM; read-out: Cytotoxic Activity of Fractions IC50
Method: as §1, §2

[3] = test system: MCF-7 (human mammary adenocarcinoma); experiment: Cytotoxic activity, neutral red assay, MCF-7; conditions: mean ± SEM
Method: (§3) The isolated compounds were resuspended in dimethyl sulfoxide (DMSO) to a final concentration of 25 mg/mL (stock solution), subsequent dilutions between 250 and 31 μg/mL were used for cytotoxicity assays. The cytotoxic activity was determined by neutral red assay, initially against the adherent cell lines 4T1 (mouse mammary tumor) and MCF-7 (human mammary adenocarcinoma) followed by H17 y TSA (murine breast cancer), MES SA PGP (+) y MES SA PGP (–) (human uterus sarcome), B16 (murine melanoma), MCA 38 (murine colon), 3T3 (murine fibroblats) y K562-ATCC, U937 y HL-60/MX2 (myeloid acute leukemia cell line) as described by Díaz-Cárdenas et al., 2017 [15]. When cultures reached a confluence of 80%, cells were passaged and counted in a Neubauer chamber. Cell viability was estimated in triplicate using the trypan blue assay. The percentage of viability was calculated as absorbance of the vehicle/absorbance of the treatment per 100. Inhibitory concentration 50 (IC50) values were defined as the concentration of the extracts that generated 50% inhibition of tumor cell growth. IC50 values were calculated with three or four parameter nonlinear regression curves using GraphPad Prism software (GraphPad Software, Inc., San Diego, CA, USA). IC50 values are presented as the mean ± standard error of mean (SEM). The selectivity index was calculated using the formula: IC50 Fibroblasts/IC50 tumor cell. A potential against tumor cell lines was considered when the selectivity was greater than 1.
(§4) The solvent used in the reconstitution of the extract (DMSO) was evaluated as a negative control for each test in the same volume as the extracts. Doxorubicin at a maximum concentration of 5 μM was used as a positive control.

[4] = test system: TSA (murine breast cancer); experiment: Cytotoxic activity, neutral red assay, TSA; conditions: mean ± SEM, read-out: Cytotoxic Activity of Fractions IC50
Method: as §1, §2

[5] = test system: K562 (myeloid acute leukemia); experiment: Cytotoxic activity, neutral red assay, K562
Method: as §1, §2

[6] = test system: 4T1 H17 (murine breast cancer, high ALDH expression); experiment: Cytotoxic activity, neutral red assay, 4T1 H17; conditions: mean ± SEM
Method: as §1, §2

[7] = test system: U937 (myeloid acute leukemia); experiment: Cytotoxic activity, neutral red assay, U937
Method: as §1, §2

[8] = test system: 4T1 (mouse mammary tumor); experiment: Cytotoxic activity, neutral red assay, 4T1; conditions: mean ± SEM
Method: as §3, §4

[9] = test system: B16 (murine melanoma); experiment: Cytotoxic activity, neutral red assay, B16; conditions: mean ± SEM, read-out: Cytotoxic Activity of Fractions IC50
Method: as §1, §2

[10] = test system: MES–SA/DX5P-Pgp (+) (human uterus sarcome); experiment: Cytotoxic activity, neutral red assay, MES-SA/DX5 Pgp (+)
Method: as §1, §2

[11] = test system: 3LL (lung cancer); experiment: Cytotoxic activity, neutral red assay, 3LL; conditions: mean ± SEM
[12] = listed as compound 1, read-out: Cytotoxic Activity of Fractions IC50
[13] = read-out: Cytotoxic Activity of Fractions IC50

Row | Structure (SMILES) | IC50 [1, 12] | IC50 [1, 13] | IC50 [2] | IC50 [3] | IC50 ([3]; listed as compound 1) | IC50 [4] | cytotoxic activity (in words) [5] | IC50 [6, 12] | IC50 [6, 13] | cytotoxic activity (in words) [7] | IC50 [8] | IC50 ([8]; listed as compound 1) | IC50 [9] | Selectivity Index (SI) ([10]; IC50 fibroblasts (3T3)/IC50 MES-SA/DX5 Pgp (+)) | IC50 ([10]; MES-SA/DX5 Pgp (+), human uterus sarcoma, mean ± SEM, read-out: Cytotoxic Activity of Fractions IC50) | IC50 [11, 12] | IC50 [11, 13] | IC50 ([3]; listed as compound 2) | IC50 ([8]; listed as compound 2)
1 | O=C1N[C@@H](Cc2ccc(O)cc2)C(=O)N2CCC[C@@H]12 [Compound 1, cyclo (L-Pro-L-Tyr)] | < 40 µM | 29.9 ± 1.55 µM | 314 ± 3.41 µM | 87.7 ± 2.32 µM | < 88 µM | 197 ± 4.18 µM | no activity was detected | < 40 µM | 40.4 ± 1.94 µM | no activity was detected | 57.1 ± 2.11 µM | < 88 µM | 80.9 ± 3.67 µM | 1.39 | 225.3 ± 1.23 µM | < 51.7 µM | 51.7 ± 0.55 µM | – | –
2 | O=C1N[C@@H](Cc2ccc(O)cc2)C(=O)N[C@H]1Cc1ccccc1 [Compound 2, cyclo (L-Tyr-L-Phe)] | – | – | – | 890.5 ± 3.45 µM | – | – | – | – | – | – | 875.9 ± 5.14 µM | – | – | – | – | – | – | > 250 µM | > 250 µM
